# Laboratory results taken from EPA's aquatic toxicity sets.
# Test system: Tetrahymena pyriformis
# Assay: 48 h IGC50 (-log10 mol/L); higher = more toxic
row,Compound,48 h IGC50 (-log10 mol/L)
1,CCC(C)C(=O)OC (stereo not given),1.83
2,O=C1CCCO1,1.28
3,CC1=CCCC1=O,2.17
4,CCCCCCCCC=O,3.81
5,Cc1cc(N)ncc1[N+](=O)[O-],3.37
6,O=[N+]([O-])c1cccc(CO)c1,2.78
7,c1cncnc1,1.25
8,CCCCCCC#CC(=O)O,3.71
9,CCOC(=O)CCCC(=O)CC(=O)OCC,2.62
10,Cc1ccc(C)c(O)c1,3.14
11,O=C(OCCO)c1ccccc1O,2.92
12,OCc1ccc2ccccc2c1,3.39
13,Nc1ccccc1I,3.35
14,C#Cc1ccccc1,2.86
15,CCOC(=O)CCCCCC(=O)OCC,3.41
16,CCCCCCNC(N)=S,3.86
17,CC(C)(C)C(N)=O,1.52
18,CCCCC(C)O (stereo not given),2.07
19,CC(N)c1ccccc1 (stereo not given),2.82
20,Cc1ccnc(C)c1,2.35
21,CCCCCCC(C)=O,2.85
22,NNC=O,2.13
23,CCCCC(Br)C(=O)O (stereo not given),3.46
24,CCCCCCC(=O)c1ccccc1,4.56
25,O=C(CBr)c1ccsc1,5.22
26,Cc1cccc(C#N)c1,2.75
27,Oc1cc(O)c(Cl)cc1Cl,3.97

row,Compound,48 h IGC50 (-log10 mol/L)
1,Clc1cc(Cl)cc(Cl)c1,3.87
2,O=C(CBr)Nc1cc([N+](=O)[O-])ccc1O,3.87
3,COC(=O)C(C)Br (stereo not given),4.18
4,O=C1CCC(=O)CC1,1.33
5,O=[N+]([O-])c1ccc(Br)c([N+](=O)[O-])c1,5.31
6,CCCCCCC#N,2.76
7,ClCCc1ccccc1,3.17
8,CCOC(=O)c1ccccn1,2.08
9,O=C(NO)c1ccccc1,3.38
10,CCCCS(=O)CCCC,2.74
11,CCCC(O)CC (stereo not given),2.15
12,O=Cc1cccc(Cl)c1,3.41
13,O=C(O)CCCCCCC(=O)O,2.49
14,C#CC(O)C(C)C (stereo not given),2.97
15,N#CCCBr,2.5
16,CC#CCOC(C)=O,2.12
17,O=C(O)c1cccc(Cl)c1,2.87
18,CCS(=O)(=O)c1ccccc1,2.21
19,CC(=O)CCc1ccc(O)cc1,2.5
20,CC(C#N)c1ccccc1 (stereo not given),3.01
21,CCOC(=O)C[C@H](C)O,1.47
22,CC(=O)NN,1.62
23,O=[N+]([O-])c1cc(C(F)(F)F)ccc1Cl,3.85
24,Cc1ccc2ccccc2n1,3.47
25,Cc1ccc(N)c(Cl)c1,3.18
26,C=CCC(C(=O)OCC)C(=O)OCC,2.94
27,CCCCCCCCCl,3.67

row,Compound,48 h IGC50 (-log10 mol/L)
1,O=[N+]([O-])c1ccc(Cl)nc1,3.8
2,CNCCc1ccccc1,2.59
3,c1ccc2ccccc2c1,2.88
4,C/C=C/COC(C)=O,2.13
5,O=[N+]([O-])c1cccc(F)c1,3.2
6,CC(C)(O)c1ccccc1,2.43
7,O=[N+]([O-])c1ccc(Br)cc1,3.38
8,Cc1ccc(O)c(Br)c1,3.6
9,O=[N+]([O-])c1ccc(Br)nc1,4.07
10,NC(=O)CCl,3.04
11,C/C=C/C(=O)CCCC,4.01
12,CN(CCO)CCO,1.17
13,N#CC(C#N)=Cc1ccco1,3.94
14,CCC(=O)OC,1.39
15,COCCCN,1.23
16,C=C(C)OC(C)=O,2.51
17,CCCCOC(=O)c1ccc(O)cc1,4.33
18,Clc1cccc(Br)c1Cl,4.3
19,COc1cc(C(C)=O)ccc1O,2.88
20,CC(C)(C)C(=O)O,2.75
21,Cc1c(N)cccc1O,2.45
22,CCN(CC)C(C)=O,1.46
23,O=C1C=CC(=O)c2ccccc21,5
24,Fc1ccc(-c2ccccc2)cc1,3.53
25,COc1cc(O)ccc1O,5.2
26,CC(=S)Nc1ccccc1,2.99
